Source: patent US20090099192A1, “Substituted 1H-pyrrole-2,5-diones” (Bayer CropScience AG, priority 2004, published 2009)

Legend:
[1] = logP determination by HPLC on reversed-phase column (C 18), EEC Directive 79/831 Annex V.A8; format: physicochemical; settings: reversed-phase C 18, 43° C., acid range (0.1% aqueous phosphoric acid, acetonitrile), marked a)
Procedure: a) The logP values given in table 1 were determined in accordance with EEC Directive 79/831 Annex V.A8 by HPLC (High Performance Liquid Chromatography) on a reversed-phase column (C 18). Temperature: 43° C. (a) Mobile phases for the determination in the acid range: 0.1% aqueous phosphoric acid, acetonitrile; linear gradient from 10% acetonitrile to 90% acetonitrile—corresponding measurement results are marked a) in table 1. Calibration was carried out using unbranched alkan-2-ones (having 3 to 16 carbon atoms) with known logP values (determination of the logP values by the retention times using linear interpolation between two successive alkanones).

[2] = system: larvae of the mustard beetle (Phaedon cochleariae); experiment: Phaedon test (spray treatment); format: in vivo; settings: for Kill rate in % after 7 d: 500 g/ha, spray, Brassica pekinensis disks
Procedure: [table] To produce a suitable preparation of active compound, 1 part by weight of active compound is mixed with the stated amounts of solvents and emulsifier, and the concentrate is diluted with emulsifier-containing water to the desired concentration. Disks of Chinese cabbage (Brassica pekinensis) are sprayed with an active compound preparation of the desired concentration and, after drying, populated with larvae of the mustard beetle (Phaedon cochleariae). After the desired period of time, the effect in % is determined. 100% means that all beetle larvae have been killed; 0% means that none of the beetle larvae have been killed.

Structure (SMILES) | logP [1] | also measured
Cc1ccc(S(=O)(=O)OC2=C(c3ccccc3Cl)C(=O)N(C3CCCC(C(F)(F)F)C3)C2=O)cc1 (stereo not drawn) [Example 208] | logP = 4.89^a) | activity in the Phaedon test (spray treatment) [2]: good activity; Kill rate in % after 7 d [2]: 100%
O=C1C(O)=C(c2cccc(C(F)(F)F)c2)C(=O)N1Cc1cc(Cl)cc(Cl)c1 [Example 112] | logP = 4.27^a) | 
O=C1C(O)=C(c2ccccc2F)C(=O)N1c1ccc(Cl)cc1 [Example 59] | logP = 2.76^a) | 
O=C1C(O)=C(c2ccc(OC(F)(F)F)cc2)C(=O)N1CC(F)(F)F [Example 39] | logP = 3.04^a) | 
O=C1C(O)=C(c2ccccc2Cl)C(=O)N1c1ncc(C(F)(F)F)s1 [Example 164] | logP = 3.14^a) | 
O=C1C(O)=C(c2ccc(OC(F)(F)F)cc2)C(=O)N1c1cc(Cl)cc(Cl)c1 [Example 76] | logP = 4.15^a) | 
Cc1cc(C)c(C2=C(OC(=O)C(C)(C)C(C)C)C(=O)N(C(C)C)C2=O)c(C)c1 [Example 20] | logP = 5.87^a) | 
Cc1ccc(-c2ccc(Cl)cc2)cc1C1=C(O)C(=O)N(CC(C)(C)C)C1=O [Example 138] | logP = 4.61^a) | 
CC1(C)CC(N2C(=O)C(O)=C(c3ccccc3Cl)C2=O)CC(C)(C)C1 [Example 160] | logP = 4.41^a) | 
O=C1C(O)=C(c2cccc(OC(F)(F)F)c2)C(=O)N1c1ccc(Cl)cc1 [Example 65] | logP = 3.59^a) | 
O=C1C(O)=C(c2ccccc2Cl)C(=O)N1C1CCCCC1 [Example 22] | logP = 3.17^a) | 
O=C1C(O)=C(c2ccccc2Cl)C(=O)N1Cc1ccc(OC(F)(F)F)cc1 [Example 84] | logP = 3.56^a) | 
Cc1ccc(-c2ccc(Cl)cc2)cc1C1=C(O)C(=O)N(c2ccccc2F)C1=O [Example 145] | logP = 4.94^a) | 
O=C1C(O)=C(c2c(F)cccc2F)C(=O)N1CCC(F)(F)F [Example 44] | logP = 2.14^a) | 
Cc1ccc(-c2ccc(Cl)cc2)cc1C1=C(O)C(=O)N(Cc2cc(Cl)ccc2Cl)C1=O [Example 139] | logP = 4.84^a) | 
N#Cc1ccc(C2=C(O)C(=O)N(c3ccc(OC(F)(F)F)cc3)C2=O)cc1 [Example 54] | logP = 2.70^a) | 
O=C1C(O)=C(c2c(F)cccc2F)C(=O)N1Cc1ccccc1F [Example 94] | logP = 2.49^a) | 
N#CC1(N2C(=O)C(O)=C(c3ccccc3Cl)C2=O)CCCCC1 [Example 157] | logP = 2.72^a) | 
CCOC(=O)CCN1C(=O)C(O)=C(c2cccc(OC(F)(F)F)c2)C1=O [Example 178] | logP = 3.95^a) | 
CC(C)(C)OC(=O)N1CCCC(N2C(=O)C(O)=C(c3ccccc3Cl)C2=O)C1 (stereo not drawn) [Example 155] | logP = 3.18^a) | 
O=C1C(O)=C(c2ccc(OC(F)(F)F)cc2)C(=O)N1c1ccc(Cl)cc1 [Example 62] | logP = 3.80^a) | 
O=C1C(O)=C(c2ccc(Cl)cc2)C(=O)N1c1ccc(Cl)cc1 [Example 63] | logP = 3.51^a) | 
O=C1C(O)=C(c2cccc(C(F)(F)F)c2)C(=O)N1CC(F)(F)F [Example 38] | logP = 2.70^a) | 

Structure (SMILES) | logP [1] | also measured
O=C1C(O)=C(c2ccccc2F)C(=O)N1c1ccc(OC(F)(F)F)cc1 [Example 51] | logP = 3.13^a) | 
O=C1C(O)=C(c2c(F)cccc2F)C(=O)N1c1ccc(OC(F)(F)F)cc1 [Example 50] | logP = 2.80^a) | 
Cc1ccc(-c2ccc(Cl)cc2)cc1C1=C(O)C(=O)N(c2ccccc2Cl)C1=O [Example 129] | logP = 4.03^a) | 
N#Cc1ccc(C2=C(O)C(=O)N(Cc3cc(Cl)cc(Cl)c3)C2=O)cc1 [Example 114] | logP = 2.94^a) | 
O=C1C(O)=C(c2ccc(C(F)(F)F)cc2)C(=O)N1Cc1ccccc1F [Example 100] | logP = 3.40^a) | 
O=C1C(O)=C(c2ccccc2F)C(=O)N1Cc1cc(Cl)cc(Cl)c1 [Example 110] | logP = 3.56^a) | 
O=C1C(O)=C(c2cccc(C(F)(F)F)c2)C(=O)N1Cc1ccc(OC(F)(F)F)cc1 [Example 85] | logP = 4.15^a) | 
Cc1ccc(-c2ccc(Cl)cc2)cc1C1=C(O)C(=O)N(c2c(F)cccc2F)C1=O [Example 124] | logP = 3.85^a) | 
O=C1C(O)=C(c2ccccc2Cl)C(=O)N1c1ccc(C(F)(F)F)cc1 [Example 27] | logP = 3.10^a) | 
O=C1C(O)=C(c2cc(Cl)cc(Cl)c2)C(=O)N1c1ccc(OC(F)(F)F)cc1 [Example 57] | logP = 3.56^a) | 
CCOC(=O)C1CCCCC1N1C(=O)C(O)=C(c2c(C)cc(-c3ccc(Cl)cc3)cc2C)C1=O (stereo not drawn) [Example 174] | logP = 4.87^a) | 
Cc1ccc(-c2ccc(Cl)cc2)cc1C1=C(O)C(=O)N(c2cc(F)ccc2F)C1=O [Example 146] | logP = 4.51^a) | 
O=C1C(O)=C(c2cc(Cl)cc(Cl)c2)C(=O)N1c1ccc(C(F)(F)F)cc1 [Example 72] | logP = 3.42^a) | 
O=C1C(O)=C(c2ccc(C(F)(F)F)cc2)C(=O)N1CCC(F)(F)F [Example 47] | logP = 3.06^a) | 
Cc1ccc(-c2ccc(Cl)cc2)cc1C1=C(O)C(=O)N(C(C)(C)c2cccc(Cl)c2)C1=O [Example 143] | logP = 4.99^a) | 
COC(=O)C1(N2C(=O)C(O)=C(c3ccccc3Cl)C2=O)CCCC(C)C1 (stereo not drawn) [Example 166] | logP = 3.48^a) | 
Cc1ccc(-c2ccc(Cl)cc2)cc1C1=C(O)C(=O)N(C(C)c2cccc(Cl)c2)C1=O (racemic) [Example 141] | logP = 4.84^a) | 
Cc1ccc(C2=C(O)C(=O)N(Cc3ccc(OC(F)(F)F)cc3)C2=O)cc1 [Example 92] | logP = 4.27^a) | 
O=C1C(O)=C(c2ccccc2Cl)C(=O)N1c1ccc(OC(F)(F)F)cc1 [Example 52] | logP = 3.27^a) | 
Cc1ccc(C2=C(O)C(=O)N(Cc3cc(Cl)cc(Cl)c3)C2=O)cc1 [Example 119] | logp = 4.42^a) | 
COC(=O)C1(N2C(=O)C(O)=C(c3ccccc3Cl)C2=O)CCCCC1 [Example 165] | logP = 3.10^a) | 
O=C1C(O)=C(c2ccccc2F)C(=O)N1c1cc(Cl)cc(Cl)c1 [Example 73] | logP = 3.20^a) | 
O=C1C(O)=C(c2ccc(Cl)cc2)C(=O)N1Cc1ccccc1F [Example 99] | logP = 3.56^a) | 

Structure (SMILES) | logP [1] | also measured
Cc1ccc(-c2ccc(Cl)cc2)cc1C1=C(O)C(=O)N(c2ccc(Cl)cc2Cl)C1=O [Example 126] | logP = 4.51^a) | 
CCOc1cccc(F)c1CN1C(=O)C(O)=C(c2c(C)cc(C)cc2C)C1=O [Example 181] | logP = 3.68^a) | 
CCCCOC1CCCC(N2C(=O)C(O)=C(c3ccccc3Cl)C2=O)C1 (stereo not drawn) [Example 152] | logP = 3.70^a) | 
Cc1ccc(C2=C(O)C(=O)N(Cc3ccccc3F)C2=O)cc1 [Example 103] | logP = 3.51^a) | 
N#Cc1ccc(C2=C(O)C(=O)N(c3cc(Cl)cc(Cl)c3)C2=O)cc1 [Example 77] | logP = 2.80^a) | 
Cc1cc(C)c(C2=C(O)C(=O)N(Cc3ccc(OC(F)(F)F)cc3)C2=O)c(C)c1 [Example 81] | logP = 4.24^a) | 
O=C1C(O)=C(c2cc(Cl)cc(Cl)c2)C(=O)N1Cc1ccc(OC(F)(F)F)cc1 [Example 91] | logP = 4.12^a) | 
CC1(C)CC(N2C(=O)C(O)=C(c3ccccc3Cl)C2=O)CC(C)(C)C1 [Example 200] |  | activity in the Phaedon test (spray treatment) [2]: good activity; Kill rate in % after 7 d [2]: 100%
O=C1C(O)=C(c2ccc(Cl)cc2)C(=O)N1c1ccc(OC(F)(F)F)cc1 [Example 55] | logP = 3.83^a) | 
Cc1ccc(-c2ccc(Cl)cc2)cc1C1=C(O)C(=O)N(C(C)(C)c2ccccc2Cl)C1=O [Example 142] | logP = 4.80^a) | 
N#Cc1ccc(C2=C(O)C(=O)N(CC(F)(F)F)C2=O)cc1 [Example 40] | logP = 1.94^a) | 
O=C1C(O)=C(c2cccc(OC(F)(F)F)c2)C(=O)N1Cc1ccccc1F [Example 101] | logP = 3.64^a) | 
O=C1C(O)=C(c2ccc(C(F)(F)F)cc2)C(=O)N1c1ccc(Cl)cc1 [Example 64] | logP = 3.35^a) | 
CCOc1ccc(N2C(=O)C(O)=C(c3ccccc3Cl)C2=O)nn1 [Example 29] | logP = 1.82^a) | 
CC1CCCC(N2C(=O)C(O)=C(c3cccc(C(F)(F)F)c3)C2=O)C1 (stereo not drawn) [Example 175] | logP = 4.56^a) | 
CCOc1cccc(F)c1CN1C(=O)C(O)=C(c2ccc(Cl)cc2)C1=O [Example 183] | logP = 3.85^a) | 
O=C1C(O)=C(c2cccc(C(F)(F)F)c2)C(=O)N1c1ccc(C(F)(F)F)cc1 [Example 68] | logP = 3.59^a) | 
O=C1C(O)=C(c2ccc(OC(F)(F)F)cc2)C(=O)N1Cc1cc(Cl)cc(Cl)c1 [Example 113] | logP = 4.67^a) | 
O=C1C(O)=C(c2cccc(OC(F)(F)F)c2)C(=O)N1Cc1ccc(OC(F)(F)F)cc1 [Example 90] | logP = 4.30^a) | 
O=C1C(O)=C(c2cc(Cl)cc(Cl)c2)C(=O)N1Cc1c(F)cccc1F [Example 109] | logP = 3.20^a) | 
CCOc1cccc(F)c1CN1C(=O)C(O)=C(c2ccc(C(F)(F)F)cc2)C1=O [Example 184] | logP = 3.81^a) | 
O=C1C(O)=C(c2cccc(OC(F)(F)F)c2)C(=O)N1CCC(F)(F)F [Example 48] | logP = 3.30^a) | 
O=C1C(O)=C(c2ccccc2F)C(=O)N1Cc1ccc(OC(F)(F)F)cc1 [Example 83] | logP = 3.45^a) | 
